Test [1] has as its target Sphingosine 1-phosphate receptor 4 (Homo sapiens, UniProt O95977). Briefly: Fluorescence dose response cell-based high throughput screening assay for antagonists of the Sphingosine 1-Phosphate Receptor 4 (S1P4). [Related pubchem assays: 1524 (Confirmation in triplicates.), 1510 (Primary screen.)]. The format is functional.
The nature of test [2]: DRD fibroblast viability loss – cell-based, non-viral oncogenic, luminescence, dose response (AID 1934). The following applies: Homo sapiens. The format is functional.
Test [3] is described as follows: loss of viability in HepG2 cells – cell-based, CellTiter-Glo, cherry-picked, cytotoxicity control for Shn3 inhibitor project, dose response (AID 624134). The format is functional. On the technique in general: ATP-based viability assays read luminescence as a measure of living cells.
For a further test, the target named is T1, Caspase-3 (Homo sapiens, UniProt P42574).
T1 sequence (P42574 whole entry): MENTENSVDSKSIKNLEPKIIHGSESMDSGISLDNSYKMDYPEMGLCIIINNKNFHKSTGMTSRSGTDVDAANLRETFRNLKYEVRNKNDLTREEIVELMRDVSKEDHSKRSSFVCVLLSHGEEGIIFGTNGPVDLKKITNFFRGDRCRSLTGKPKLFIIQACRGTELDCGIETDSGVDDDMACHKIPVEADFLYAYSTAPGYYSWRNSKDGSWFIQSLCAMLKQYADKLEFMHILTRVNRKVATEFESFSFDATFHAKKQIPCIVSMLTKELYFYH
The test is described as follows: SAR Analysis of small molecule inhibitors of Sentrin-specific proteases (SENPs) using a Caspase-3 Selectivity assay. [Related pubchem assays (depositor defined):AID2540, AID2599, AID434973, AID489001]. The class given is functional.

Another test deals with Beta-galactosidase (Escherichia coli, UniProt Q8VNN2). Briefly: PubChem AID 485352. The class given is functional.
Test [4] has as its target T2, Type-1 angiotensin II receptor (Homo sapiens, UniProt P30556).
T2 sequence (P30556 whole entry): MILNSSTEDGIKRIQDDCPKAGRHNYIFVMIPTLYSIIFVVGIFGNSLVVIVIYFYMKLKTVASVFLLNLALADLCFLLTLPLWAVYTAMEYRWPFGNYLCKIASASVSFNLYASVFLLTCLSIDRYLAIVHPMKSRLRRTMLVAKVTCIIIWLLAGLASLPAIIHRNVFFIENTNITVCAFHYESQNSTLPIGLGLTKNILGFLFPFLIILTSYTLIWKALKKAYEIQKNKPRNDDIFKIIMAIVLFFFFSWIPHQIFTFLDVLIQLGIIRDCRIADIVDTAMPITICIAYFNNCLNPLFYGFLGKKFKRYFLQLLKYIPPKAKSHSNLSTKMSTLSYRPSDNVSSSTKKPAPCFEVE
Briefly: antagonism of angiotensin II type 1 receptor – cell-based, uHTS hits, selectivity assay for APJ receptor antagonist project, dose response (AID 463214).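 Further: antagonist potency against angiotensin II stimulated AT1 response.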 The class given is functional.

The target of test [5] is Serine/threonine-protein phosphatase (Homo sapiens, UniProt Q9BPW0). The test is described as follows: inhibition of protein phosphatase 5 activity – biochemical, fluorescence, dose response (AID 2395).
For test [6], the target named is T3, 1-phosphatidylinositol 4,5-bisphosphate phosphodiesterase gamma-1 (Homo sapiens, UniProt P19174).
T3 sequence (P19174 whole entry): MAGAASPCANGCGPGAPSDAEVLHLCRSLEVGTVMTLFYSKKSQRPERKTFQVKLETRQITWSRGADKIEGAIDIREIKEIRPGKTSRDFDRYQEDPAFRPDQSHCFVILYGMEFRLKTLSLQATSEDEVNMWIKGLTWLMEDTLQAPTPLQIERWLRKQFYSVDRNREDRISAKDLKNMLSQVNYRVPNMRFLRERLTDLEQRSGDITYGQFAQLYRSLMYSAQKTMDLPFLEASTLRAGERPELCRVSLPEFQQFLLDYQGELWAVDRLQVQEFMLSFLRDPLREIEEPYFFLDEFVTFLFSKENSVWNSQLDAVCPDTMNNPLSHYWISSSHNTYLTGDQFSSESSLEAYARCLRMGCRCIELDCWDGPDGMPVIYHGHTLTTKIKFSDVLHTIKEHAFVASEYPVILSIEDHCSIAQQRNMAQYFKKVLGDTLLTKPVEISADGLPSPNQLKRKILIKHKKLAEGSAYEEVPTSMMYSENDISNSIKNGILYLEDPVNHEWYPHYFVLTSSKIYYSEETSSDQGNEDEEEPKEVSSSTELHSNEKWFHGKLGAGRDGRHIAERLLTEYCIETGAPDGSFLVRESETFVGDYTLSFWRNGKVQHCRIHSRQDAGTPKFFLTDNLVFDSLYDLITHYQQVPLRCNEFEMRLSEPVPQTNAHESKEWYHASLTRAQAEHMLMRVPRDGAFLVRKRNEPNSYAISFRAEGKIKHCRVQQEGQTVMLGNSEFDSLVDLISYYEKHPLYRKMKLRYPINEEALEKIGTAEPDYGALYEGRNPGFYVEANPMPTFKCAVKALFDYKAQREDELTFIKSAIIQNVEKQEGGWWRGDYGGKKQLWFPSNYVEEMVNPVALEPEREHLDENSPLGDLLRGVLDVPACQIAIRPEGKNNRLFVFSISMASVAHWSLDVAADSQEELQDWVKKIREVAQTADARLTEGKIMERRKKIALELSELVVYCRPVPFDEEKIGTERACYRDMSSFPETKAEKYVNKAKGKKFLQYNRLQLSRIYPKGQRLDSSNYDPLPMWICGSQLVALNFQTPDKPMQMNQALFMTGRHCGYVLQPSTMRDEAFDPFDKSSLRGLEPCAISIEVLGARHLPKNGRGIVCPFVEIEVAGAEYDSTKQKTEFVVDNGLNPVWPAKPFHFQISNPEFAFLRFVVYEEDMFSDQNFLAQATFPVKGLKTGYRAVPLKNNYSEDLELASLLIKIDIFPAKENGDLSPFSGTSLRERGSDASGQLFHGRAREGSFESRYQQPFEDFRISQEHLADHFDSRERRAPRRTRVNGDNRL
Briefly: Counterscreen for inhibitors of phospholipase C isozymes (PLC-B3): Fluorescence-based biochemical high throughput dose response assay to identify inhibitors of phospholipase C isozymes (PLC-gamma1). (A counterscreen serves to expose hits that act by an unwanted route or on another target.)

The target in the next test is T4, Streptokinase A (Streptococcus pyogenes serotype M1, UniProt P10520).
T4 sequence (P10520 whole entry): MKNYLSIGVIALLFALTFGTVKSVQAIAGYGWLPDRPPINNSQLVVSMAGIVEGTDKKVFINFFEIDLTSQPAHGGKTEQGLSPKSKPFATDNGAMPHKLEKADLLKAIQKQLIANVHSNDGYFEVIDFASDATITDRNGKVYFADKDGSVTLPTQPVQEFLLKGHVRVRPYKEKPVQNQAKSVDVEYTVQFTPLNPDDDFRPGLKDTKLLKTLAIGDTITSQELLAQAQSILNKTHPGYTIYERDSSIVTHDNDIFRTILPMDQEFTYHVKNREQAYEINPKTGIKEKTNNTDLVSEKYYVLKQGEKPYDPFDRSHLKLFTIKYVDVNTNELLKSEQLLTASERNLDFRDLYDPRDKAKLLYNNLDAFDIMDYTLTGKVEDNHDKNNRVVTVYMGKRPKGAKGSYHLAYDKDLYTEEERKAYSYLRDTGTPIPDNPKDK
The test is described as follows: viability-normalized secreted streptokinase activity reduction – plasminogen activation absorbance, OD405, dose response (AID 1914).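 Further: secreted streptokinase activity via plasminogen activation per viability signal from cell pellet.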 The class given is functional, Streptococcus pyogenes M1 GAS.

Active and inactive are the calls of the source.

In general, IC50 refers to the concentration that inhibits the measured activity by half. As usually defined, the EC50 is the concentration needed to bring the measured effect to its halfway point. One may read the AC50 as the concentration at which the activity in the assay is half-maximal.

Chain of Beta-galactosidase (Q8VNN2 whole entry): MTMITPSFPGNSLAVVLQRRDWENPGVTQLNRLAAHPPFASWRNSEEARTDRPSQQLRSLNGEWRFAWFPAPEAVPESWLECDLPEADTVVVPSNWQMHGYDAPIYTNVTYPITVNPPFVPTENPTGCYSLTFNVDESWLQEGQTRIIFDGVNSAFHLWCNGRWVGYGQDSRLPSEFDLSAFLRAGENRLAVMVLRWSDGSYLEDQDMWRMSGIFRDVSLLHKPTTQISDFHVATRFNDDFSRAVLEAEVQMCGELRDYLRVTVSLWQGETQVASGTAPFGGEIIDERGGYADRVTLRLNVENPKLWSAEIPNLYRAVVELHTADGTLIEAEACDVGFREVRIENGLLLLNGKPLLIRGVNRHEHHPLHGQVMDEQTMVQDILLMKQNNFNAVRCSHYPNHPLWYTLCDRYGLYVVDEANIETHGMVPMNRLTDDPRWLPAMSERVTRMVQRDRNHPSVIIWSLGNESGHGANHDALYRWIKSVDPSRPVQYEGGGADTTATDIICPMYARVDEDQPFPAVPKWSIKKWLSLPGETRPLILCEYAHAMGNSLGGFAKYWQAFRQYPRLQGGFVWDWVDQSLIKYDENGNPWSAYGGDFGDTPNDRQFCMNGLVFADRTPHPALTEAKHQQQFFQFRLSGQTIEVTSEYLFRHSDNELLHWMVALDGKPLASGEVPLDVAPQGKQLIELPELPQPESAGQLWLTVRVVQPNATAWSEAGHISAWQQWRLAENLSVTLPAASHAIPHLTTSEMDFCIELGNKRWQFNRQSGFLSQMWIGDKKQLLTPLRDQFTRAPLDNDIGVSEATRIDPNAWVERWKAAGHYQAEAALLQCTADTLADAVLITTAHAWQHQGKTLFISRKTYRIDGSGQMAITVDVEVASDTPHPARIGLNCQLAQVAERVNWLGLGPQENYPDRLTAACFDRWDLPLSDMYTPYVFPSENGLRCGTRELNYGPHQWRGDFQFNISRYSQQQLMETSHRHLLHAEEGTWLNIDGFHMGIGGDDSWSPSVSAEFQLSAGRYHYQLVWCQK
Chain of Serine/threonine-protein phosphatase (Q9BPW0 whole entry): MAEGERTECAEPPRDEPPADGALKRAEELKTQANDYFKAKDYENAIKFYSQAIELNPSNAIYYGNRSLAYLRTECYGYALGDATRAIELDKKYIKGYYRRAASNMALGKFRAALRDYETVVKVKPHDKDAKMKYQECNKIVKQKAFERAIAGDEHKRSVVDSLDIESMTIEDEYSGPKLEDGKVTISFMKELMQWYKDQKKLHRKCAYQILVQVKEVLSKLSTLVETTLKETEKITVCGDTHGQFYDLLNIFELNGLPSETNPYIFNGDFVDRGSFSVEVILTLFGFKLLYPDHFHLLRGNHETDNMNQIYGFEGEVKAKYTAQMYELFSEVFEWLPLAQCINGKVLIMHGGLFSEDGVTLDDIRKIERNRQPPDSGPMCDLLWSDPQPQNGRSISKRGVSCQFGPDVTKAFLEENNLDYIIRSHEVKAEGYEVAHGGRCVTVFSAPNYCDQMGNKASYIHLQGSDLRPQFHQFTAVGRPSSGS
Chain of Sphingosine 1-phosphate receptor 4 (O95977 whole entry): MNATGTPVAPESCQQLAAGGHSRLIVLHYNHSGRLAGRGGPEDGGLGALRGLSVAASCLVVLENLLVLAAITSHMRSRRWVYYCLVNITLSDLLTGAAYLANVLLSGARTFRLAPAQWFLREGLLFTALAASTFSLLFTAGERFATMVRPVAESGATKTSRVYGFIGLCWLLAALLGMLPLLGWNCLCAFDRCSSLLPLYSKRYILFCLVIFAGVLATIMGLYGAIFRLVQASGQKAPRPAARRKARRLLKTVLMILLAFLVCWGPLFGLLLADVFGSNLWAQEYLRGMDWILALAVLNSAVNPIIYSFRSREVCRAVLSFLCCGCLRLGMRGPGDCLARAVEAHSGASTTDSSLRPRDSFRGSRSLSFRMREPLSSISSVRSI

Consider `COC(=O)C[C@]1(C(=O)OC)CN(C#N)N(c2ccc(Cl)cc2)C12c1ccccc1-c1ccccc12`, for which the IC50 in [1] is 0.341 µM (active). For the same compound, the EC50 in test [2] is 3.62 µM (active). Besides, the AC50 in test [3] was 4.76 µM (active).

Regarding `O=C(Nc1ccc(C#Cc2ccccc2)cc1)C1CC1`, the half-maximal inhibitory concentration (IC50) on Caspase-3 is 19.7 µM (active). As to `CCCCn1c(NC(=O)c2ccco2)c(C(=O)OCC)c2nc3ccccc3nc21`, the EC50 on Beta-galactosidase is > 40 µM (inactive). Moreover, the IC50 was 10.4 µM (active) in [4] and 10.3 µM (not active) in test [5]. As to `Cc1ccccc1NC1=C/C(=N\S(=O)(=O)c2ccc(C(=O)O)cc2)c2ccccc2C1=O`, the IC50 in test [6] was 90.1 µM (inactive).

As for `COc1ccc(-c2cc(-c3ccc(C)cc3)[nH]n2)c(O)c1`, the EC50 on Streptokinase A is > 150 µM (not active).

Source of the values: ChEMBL document CHEMBL1201862, “PubChem BioAssay data set” (2004).
